Reference: patent US6897019B1, “Methods for treating and preventing insulin resistance and related disorders” (priority 1998, dated 2005)
Entries after “also recorded” stand apart in the source; their conditions may differ.

How the values were obtained:
3T3-L1 adipocytes [1] = assay: Lipolysis (glycerol in culture medium) of 3T3-L1 adipocytes with or without TNF-α; assay type: cell-based, Mouse; conditions: for increase in glycerol accumulation versus untreated controls: last 24 hours of 5-day treatment
Method: 3T3-L1 adipocytes used in this example were obtained from 3T3-L1 fibroblasts as follows. 3T3-L1 fibroblasts (ATCC Deposit NO. CL-173, described in U.S. Pat. No. 4,003,789) were cultured in Dulbecco's Modified Eagle's Medium (DMEM) containing 10% bovine calf serum, and induced to differentiate into adipocytes using standard protocols, as described, e.g., in Kohanski et al. (1996) J. Biol. Chem. 261:12272. Adipocytes were used 10-15 days after the differentiation protocol was initiated.
Differentiated 3T3-L1 adipocytes cultured in 12 well plates were incubated overnight in DMEM+0.5% BSA in the absence of serum. The following morning, the cells were incubated in the presence or absence of 2 mM or 20 mM sodium salicylate (NaSal) and treated with recombinant murine TNF-α (m TNF-α; Genzyme; Cambridge, Mass.) with or without 17 μM 15-deoxy-^12,14-PGJ2 (“PGJ2”; Cayman Chemical; Ann Arbor, Mich.) or 10 μM BRL 49653 (“BRL”; Smith Kine Beecham (Hamish Ross) (King of Prussia, Pa.)) for 24 hours. The glycerol content in the culture medium was determined using a colorimetric assay (GPO-Trinder, Sigma, St Louis, […].). Protein content was determined using the BCA (bicinchonic acid) protein assay (Pierce, Rockford, Ill.). The results are indicated as nmol glycerol per mg protein.
Accordingly, 3T3-L1 adipocytes were treated with BRL at 10 μM, 1 μM or 1 nM and TNF-α as described above, and the amount of glycerol was determined after 24 hours.
3T3-L1 adipocytes were treated with TNF-α (2 or 10 ng/ml), TNF-α plus BRL at 10 μM, TNF-α plus PGJ2 at 15 μM, or BRL or PGJ2 alone for 5 days. The media was replaced everyday and collected on day 5 to measure accumulation of glycerol.
[…] The glycerol content in the culture medium was determined as described above.
3T3-L1 adipocytes prepared as described in Example 1 were preincubated with various amounts (0-50 μM) of the p38 kinase inhibitor SB203580 and then treated with 10 ng/ml TNF-α for 24 hours and the amount of glycerol in the culture medium determined as described above. […]

JNK-1 [2] = assay: JNK-1 kinase assay (c-jun substrate) on extracts of treated 3T3-L1 adipocytes; assay type: cell-based, Mouse; conditions: 3 days 17 μM PGJ2, then 15 minutes 10 ng/ml TNF-α
Method: 3T3-L1 adipocytes were pretreated for 3 hours with or without 20 mM NaSal, with or without 100 μM MAP kinase kinase (MEK) inhibitor PD98059 (Biomol; Cat. No. EI-360) and then for 15 minutes with 10 ng/ml mTNF-α. JNK-1 kinase assays were then performed with extracts of each of these cell cultures on an N-terminal portion of c-jun, as described in Derjarde et al. (1994) Cell 76: 1025.
(§1) 3T3-L1 adipocytes prepared as described in Example 1 were pretreated for 3 hours with or without 20 mM NaSal or 100 μM PD98059 and then treated for 15 minutes with or without 10 ng/ml mTNF-α and with or without 10 μM BRL. Cell extracts were then prepared and used in ERK 1/2 kinase and JNK-1 kinase assays, as described above.
(§2) 3T3-L1 cells were pretreated for 3 days with 17 μM of PGJ2 and then for 15 minutes with 10 ng/ml TNF-α. The amount of phosphorylated (thus activated) JNK-1, ERK1/2, and p38 was determined by Western blot using an antibody specifically recognizing phosphorylated forms of the proteins. As a control, the total amount of JNK-1, ERK1/2 and p38 protein was determined by Western blot using an antibody recognizing the phosphorylated and non phosphorylated forms of the protein. The activity of ERK1/2 and JNK kinases was also determined in a kinase assay using MBP and a portion of c-jun, respectively, as substrate.

ERK1/2 [3] = assay: ERK 1/2 kinase assay (MBP substrate) on extracts of treated 3T3-L1 adipocytes; assay type: cell-based, Mouse
Method: In this example, 3T3-L1 cells were treated as described in Example 2, and cell extracts were used in an ERK 1/2 kinase assay, using MBP (myelin basic protein) as a substrate. The assay used is described in Boulton et al. (1991) Cell Reg. 2: 357.
as §1, §2

ERK1/2 [4] = assay: Western blot of phosphorylated ERK1/2 in 3T3-L1 cells; assay type: cell-based, Mouse; conditions: 3 days 17 μM PGJ2, then 15 minutes 10 ng/ml TNF-α
Method: as §2

JNK-1 [5] = assay: Western blot of phosphorylated JNK-1 in 3T3-L1 cells; assay type: cell-based, Mouse; conditions: 3 days 17 μM PGJ2, then 15 minutes 10 ng/ml TNF-α
Method: as §2

p38 = assay: Western blot of phosphorylated p38 in 3T3-L1 cells; assay type: cell-based, Mouse; conditions: 3 days 17 μM PGJ2, then 15 minutes 10 ng/ml TNF-α
Method: as §2

3T3-L1 adipocytes [6] = assay: Catecholamine (isoproterenol)-induced glycerol release from 3T3-L1 adipocytes; assay type: cell-based, Mouse; conditions: BRL or PGJ2
perilipin A = assay: Western blot of perilipin A protein in 3T3-L1 adipocytes; assay type: cell-based, Mouse; conditions: TNF-α 10 ng/ml, 24 hours
Method: 3T3-L1 adipocytes were treated with TNF-α at 10 ng/ml, TNF-α plus BRL (10 μM), or BRL alone for 24 hours, following which cell lysates were collected and analyzed by Western blotting using antibodies against HSL and perilipin A proteins. Perilipin antibodies were generated by immunization of rabbits with a peptide identical to amino acids 9-23 of the rat perilipin protein (Greenberg et al. (1993) PNAS 90:12035). Antibodies to HSL were prepared by injecting a peptide based upon the rat HSL sequence (GeneBank) (KDLSFKGNSPEPSDSPEMC; SEQ ID NO: 1) into rabbits. Antibodies were subsequently affinity purified and used for Western blotting at a dilution of 1:1500. Western blotting was performed as follows: adipocytes are briefly rinsed with 1 ml of phosphate saline buffer (PBS, pH 7.4). Proteins were extracted by adding 200 μl of lysis buffer containing 50 mM Hepes, pH 7.4, 100 mM Nacl, 2 mM EDTA, 5% SDS, 0.1 mM Na3V) 4 , 50 mM NaF, 1 mM benzamidine, 100 μM AEBSF, adn 10 μg/ml aprotinin. Equivalent amounts of protein were separated by 10% SDS-PAGE, electrophoretically transferred to nitrocellulose membranes, incubated with primary antibody and subsequentely with donkey anti-rabbit IgG conducaged with horseradish peroxidase. Proteins were detected with enhanced chemiluminescence (ECL) system (Amersham). […]

HSL = assay: Western blot of HSL protein in 3T3-L1 adipocytes; assay type: cell-based, Mouse; conditions: TNF-α 10 ng/ml, 24 hours
Method: 3T3-L1 adipocytes were treated with TNF-α at 10 ng/ml, TNF-α plus BRL (10 μM), or BRL alone for 24 hours, following which cell lysates were collected and analyzed by Western blotting using antibodies against HSL and perilipin A proteins. Perilipin antibodies were generated by immunization of rabbits with a peptide identical to amino acids 9-23 of the rat perilipin protein (Greenberg et al. (1993) PNAS 90:12035). Antibodies to HSL were prepared by injecting a peptide based upon the rat HSL sequence (GeneBank) (KDLSFKGNSPEPSDSPEMC; SEQ ID NO: 1) into rabbits. Antibodies were subsequently affinity purified and used for Western blotting at a dilution of 1:1500. Western blotting was performed as follows: adipocytes are briefly rinsed with 1 ml of phosphate saline buffer (PBS, pH 7.4). Proteins were extracted by adding 200 μl of lysis buffer containing 50 mM Hepes, pH 7.4, 100 mM Nacl, 2 mM EDTA, 5% SDS, 0.1 mM Na3V) 4 , 50 mM NaF, 1 mM benzamidine, 100 μM AEBSF, adn 10 μg/ml aprotinin. Equivalent amounts of protein were separated by 10% SDS-PAGE, electrophoretically transferred to nitrocellulose membranes, incubated with primary antibody and subsequentely with donkey anti-rabbit IgG conducaged with horseradish peroxidase. Proteins were detected with enhanced chemiluminescence (ECL) system (Amersham).

[7] = Ehrman et al. 1997; cited from earlier work

With `CCCCC/C=C/C=C1/C(=O)C=C[C@@H]1C/C=C\CCCC(=O)O` [PGJ2, 15-deoxy-^12,14-PGJ2] as the compound, how does the “inhibition of TNF-α induced lipolysis” value (3T3-L1 adipocytes [1]; 10 μM BRL or 17 μM PGJ2, TNF-α 2 or 10 ng/ml, 24 hours) read?
The value was “significantly inhibited; also recorded: inhibit”.

And the “blocked share of the increase in glycerol release due to TNF-α” value (3T3-L1 adipocytes [1]; 5 days, BRL 10 μM or PGJ2 15 μM, TNF-α 2 or 10 ng/ml, last 24 hours)?
Its value is “about 100%”.

What about the “glycerol accumulation versus control (untreated) cells” value (3T3-L1 adipocytes [1]; BRL or PGJ2 alone, 5 days) of the same compound?
Its value is “not different from levels measured in control”.

And the “further reduction of lipolysis when added to NaSal” value (3T3-L1 adipocytes [1]; added to cells incubated with 20 mM NaSal, TNF-α, 24 hours)?
Its value is “did not further reduce lipolysis”.

What about the “TNF-α induced increase in JNK-1 kinase activity” value (JNK-1 [2]) of the same compound?
Its value is “to a lesser extent”.

And the “TNF-α induced increase in ERK1/2 kinase activity” value (ERK1/2 [3]; 3 days 17 μM PGJ2, then 15 minutes 10 ng/ml TNF-α)?
Its value is “significantly inhibits”.

What about the “phosphorylation of ERK1/2” value (ERK1/2 [4]) of the same compound?
The value was “significantly reduces”.

What about the “phosphorylation of JNK-1” value (JNK-1 [5]) of the same compound?
Its value is “significantly reduces”.

What about the “phosphorylation of p38” value (p38) of the same compound?
Its value is “significantly reduces”.

What about the “block of isoproterenol-induced glycerol release” value (3T3-L1 adipocytes [6]) of the same compound?
Its value is “neither BRL nor PGJ2 was able to block”.

What does the source list for TNF-α?
increase in glycerol accumulation versus untreated controls (3T3-L1 adipocytes [1]; 2 ng/ml TNF-α): ~10 fold; increase in glycerol accumulation versus untreated controls (3T3-L1 adipocytes [1]; 10 ng/ml TNF-α): ~13 fold; increase in phosphorylation of the MBP substrate (ERK1/2 activation) (ERK1/2 [3]; 10 ng/ml TNF-α, 15 minutes): seven; expression of perilipin A protein versus untreated controls (perilipin A): markedly decreased; HSL protein expression versus untreated controls (HSL): slightly decreased

With `Cc1c(C)c2c(c(C)c1O)CCC(C)(COc1ccc(CC3SC(=O)NC3=O)cc1)O2` (stereo not shown) [troglitazone, 5-[[4-[(3,4-dihydro-6-hydroxy-2,5,7,8-tetramethyl-2H-1-benzopyran-2-yl)methoxy]phenyl]methyl]-2,4-thiazolidinedione] as the compound, how does the “efficacy in PCOS” value [7] read?
The value was “effective”.
